The test system of data set [1] is production of β-amyloid protein (Aβ) by E35 cells (human glioma H4 cells transfected with APP751 gene). The data set is described as follows: Screening system using cells: inhibition of production/secretion of β-amyloid protein (Aβ sandwich ELISA of culture supernatant). The conditions noted are these: 24 hours with compound, Aβ in supernatant by ELISA, read-out: Activity (EC50, concentration at which production of Aβ is inhibited by 50%). Format: cell-based. As for the experimental part:
Inhibitory activity of compounds against production of β-amyloid protein was measured by quantitative determination of the amount of β-amyloid protein (Aβ) secreted into the culture medium by sandwich enzyme-linked immunosorbent assay (ELISA) method, using E35 cells prepared by transfecting APP751 gene, which is a human wild type β-amyloid protein precursor protein gene, into human glioma cells (H4 cells).
That is, E35 cells were inoculated into a 96-well plate followed by cultivation in an incubator equilibrated with 5% carbon dioxide at 37° C., using Dulbecco's Modified Eagle's Medium supplemented with inactivated 10% fetal bovine serum as the medium. Test compounds dissolved in DMSO solution were added 24 hours after inoculation. Test compounds in DMSO solution were prepared to have a 2000-fold concentration of the final concentration, so that the DMSO concentration in the medium becomes 0.05%. After further cultivation for 24 hours, supernatant was collected, and was added to a 96-well plate for ELISA fixed with monoclonal antibody 25-1 against Aβ. Incubation was carried out at 4° C. for 16-20 hours. The plate was washed with phosphate buffer (pH 7.4), followed by addition of biotinylated monoclonal antibody MA32-40 against Aβ, and the plate was allowed to stand at 4° C. for 2 hours. After the plate was washed with phosphate buffer again, streptavidin conjugated alkaline phosphatase was added. Biotin was allowed to conjugate with streptavidin, and then the plate was washed with phosphate buffer. Blue Phos (KPL Inc.) was added to the plate, and then after incubation for an appropriate period of time, absorbance was measured for each of the wells. The amount of Aβ contained in the supernatant of conditioned medium was obtained from a calibration curve which was prepared separately. The concentration at which production of Aβ is inhibited by 50% (EC50), when compared with the control cells without the addition of the compound, was calculated. Here, 25-1 antibody and MA32-40 antibody used in ELISA are mouse monoclonal antibodies derived from hybridoma cell clone cell lines, which specifically recognize each antigen which was prepared and selected in accordance with a standard method by using Aβ25-35 and Aβ1-8 as antigens, respectively.
Results for the evaluation made by the aforementioned assay with respect to compound (I) of the present invention are shown in Table 1. Notation of ++++ is provided when EC50 is 5 nM or lower, +++ when 5-50 nM, and ++ when 50-500 nM.
On the technique in general: ELISA stands for enzyme-linked immunosorbent assay.

For orientation: melting point means the temperature, or range, at which the solid turns liquid. On to `Cc1cc(C(=O)NCO)ncc1C(c1c(F)ccc(F)c1F)S(=O)(=O)CCC(C)(F)F` (stereo not drawn), for which the melting point lay in the range of 161 to 161.5 °C. In the case of `CCCS(=O)(=O)C(c1cnc(C(N)=O)cc1C)c1c(F)ccc(F)c1F` (stereo not drawn), the melting point fell in the range of 202 to 204 °C. In the case of `Cc1cc(C(N)=O)ncc1C(c1c(F)ccc(F)c1F)S(=O)(=O)CCC(C)(C)C` (stereo not drawn), the melting point was in the range of 143 to 144 °C. On to `Cc1cc(C(N)=O)ncc1C(c1c(F)ccc(F)c1F)S(=O)(=O)CC1CC1` (stereo not drawn), for which the melting point is 222 to 223 °C. For `Cc1cc(C(N)=O)ncc1C(c1c(F)ccc(F)c1F)S(=O)(=O)CC(C)C` (stereo not drawn), the melting point lay within 240 to 241 °C. In turn, `Cc1cc(C(N)=O)ncc1C(c1c(F)ccc(F)c1F)S(=O)(=O)CC1CCC1` (stereo not drawn) gave a melting point of 214 to 215 °C. `Cc1cc(C(=O)NCO)ncc1C(c1c(F)ccc(F)c1F)S(=O)(=O)CCC(F)(F)C(F)(F)F` (stereo not drawn) gave a melting point of 126 to 128 °C. In turn, `Cc1cc(C(N)=O)ncc1C(SCCC=C(F)F)c1c(F)ccc(F)c1F` (stereo not drawn) displayed a melting point of 97 to 98 °C.

`Cc1cc(C(N)=O)ncc1C(c1c(F)ccc(F)c1F)S(=O)(=O)CCC(F)=C(F)F` (stereo not drawn) showed a melting point of 170 to 172 °C. For `Cc1cc(C(N)=O)ncc1C(c1c(F)ccc(F)c1F)S(=O)(=O)CC(F)(F)C(F)F` (stereo not drawn), the melting point was 160 to 161 °C. Consider `Cc1cc(C(N)=O)ncc1C(c1c(F)ccc(F)c1F)S(=O)(=O)CC(C(F)(F)F)C(F)(F)F` (stereo not drawn), for which the melting point lay in the range of 194 to 196 °C.

In turn, `Cc1cc(C(N)=O)ncc1C(c1c(F)ccc(F)c1F)S(=O)(=O)CCC(F)F` (stereo not drawn) came in with a melting point of 191.5 to 192 °C. As to `Cc1cc(C(N)=O)ncc1C(c1c(F)ccc(F)c1F)S(=O)(=O)CC1CC(F)(F)C1` (stereo not drawn), the melting point lay within 205 to 207 °C. The compound `Cc1cc(C(=O)O)ncc1C(c1c(F)ccc(F)c1F)S(=O)(=O)CCC(F)(F)F` (stereo not drawn) registered a melting point of 85 to 87 °C. On to `Cc1cc(C(=O)N(C)C)ncc1C(c1c(F)ccc(F)c1F)S(=O)(=O)CCC(F)(F)F` (stereo not drawn), for which the melting point fell in the range of 203 to 204 °C. On the same count and under the same terms, in the case of `Cc1cc(C(=O)NCCO)ncc1C(c1c(F)ccc(F)c1F)S(=O)(=O)CCC(F)(F)F` (stereo not drawn) it was 146 to 147 °C; in that of `Cc1cc(C(N)=O)ncc1C(c1c(F)ccc(F)c1F)S(=O)(=O)CCCC(F)(F)F` (stereo not drawn), 201 to 203 °C; in that of `Cc1cc(C(N)=O)ncc1C(c1c(F)ccc(F)c1F)S(=O)(=O)CCCF` (stereo not drawn), 194 to 196 °C. Compound `Cc1cc(C(N)=O)ncc1C(c1c(F)ccc(F)c1F)S(=O)(=O)CCC(F)(F)F` (stereo not drawn) [Example 3, 4-Methyl-5-[(2,3,6-trifluorophenyl)[(3,3,3-trifluoropropyl)sulfonyl]methyl]pyridine-2-carboxamide] registered a melting point of 190 to 191 °C. The EC50 in data set [1] was 50 to 500 nM.

With `Cc1cc(C(=O)NCO)ncc1C(c1c(F)ccc(F)c1F)S(=O)(=O)CCC(F)(F)F` (stereo not drawn) [Example 4, N-(Hydroxymethyl)-4-methyl-5-[(2,3,6-trifluorophenyl)[(3,3,3-trifluoropropyl)sulfonyl]methyl]pyridine-2-carboxamide], the melting point lay in the range of 146 to 148 °C. Further, in data set [1], the EC50 was in the range of 5 to 50 nM.

With `Cc1cc(C(N)=O)ncc1C(c1c(F)ccc(F)c1F)S(=O)(=O)CCC(C)(F)F` (stereo not drawn) [Example 10, 5-[[(3,3-Difluorobutyl)sulfonyl](2,3,6-trifluorophenyl)methyl]-4-methylpyridine-2-carboxamide], the melting point is 165 to 166 °C. In addition, the EC50 in data set [1] lay in the range of 50 to 500 nM.

Turning to `CCCCS(=O)(=O)C(c1cnc(C(N)=O)cc1C)c1c(F)ccc(F)c1F` (stereo not drawn) [Example 15, 5-[(Butylsulfonyl)(2,3,6-trifluorophyenyl)methyl]-4-methylpyridine-2-carboxamide], the melting point was 203 to 204 °C. The EC50 in data set [1] lay in the range of 50 to 500 nM. In the same order, the values of `Cc1cc(C(N)=O)ncc1C(c1c(F)ccc(F)c1F)S(=O)(=O)CCC(Cl)(Cl)Cl` (stereo not drawn) [Example 18, 4-Methyl-5-[[(3,3,3-trichloropropyl)sulfonyl](2,3,6-trifluorophenyl)methyl]pyridine-2-carboxamide] are 173 to 175 °C and 50 to 500 nM. Turning to `Cc1cc(C(N)=O)ncc1C(c1c(F)ccc(F)c1F)S(=O)(=O)CCC(F)(F)C(F)(F)F` (stereo not drawn) [Example 19, 4-Methyl-5-[[(3,3,4,4,4-pentafluorobutyl)sulfonyl](2,3,6-trifluorophenyl)methyl]pyridine-2-carboxamide], the melting point lay within 155 to 156 °C. Also, the EC50 in data set [1] lay in the range of 5 to 50 nM. On to `Cc1cc(C(N)=O)ncc1C(c1c(F)ccc(F)c1F)S(=O)(=O)CCCCl` (stereo not drawn) [Example 30, 5-[[(3-Chloropropyl)sulfonyl](2,3,6-trifluorophenyl)methyl]-4-methylpyridine-2-carboxamide], for which the melting point fell in the range of 197 to 199 °C. Besides, the EC50 in data set [1] lay within 50 to 500 nM. As for `Cc1cc(C(N)=O)ncc1C(c1c(F)ccc(F)c1F)S(=O)(=O)CCC(F)(F)Cl` (stereo not drawn) [Example 34, 5-[[(3-Chloro-3,3-difluoropropyl)sulfonyl](2,3,6-trifluorophenyl)methyl]-4-methylpyridine-2-carboxamide], the melting point was in the range of 181 to 183 °C. Also, the EC50 in data set [1] lay within 5 to 50 nM. Regarding `Cc1cc(C(=O)NCO)ncc1C(c1c(F)ccc(F)c1F)S(=O)(=O)CCC(F)(F)Cl` (stereo not drawn) [Example 35, 5-[[(3-Chloro-3,3-difluoropropyl)sulfonyl](2,3,6-trifluorophenyl)methyl]-N-(hydroxymethyl)-4-methylpyridine-2-carboxamide], the melting point lay in the range of 150 to 152 °C. Moreover, the EC50 in data set [1] lay within 5 to 50 nM. Compound `Cc1cc(C(N)=O)ncc1C(c1c(F)ccc(F)c1F)S(=O)(=O)CC=C(F)F` (stereo not drawn) [Example 37, 5-[[(3,3-Difluoroprop-2-en-1-yl)sulfonyl](2,3,6-trifluorophenyl)methyl]-4-methylpyridine-2-carboxamide] gave a melting point of 171 to 172 °C. Further, in data set [1], the EC50 fell in the range of 50 to 500 nM. With `NC(=O)c1cc(C(c2c(F)ccc(F)c2F)S(=O)(=O)CCC(F)(F)F)c(Cl)cn1` (stereo not drawn) [Example 45, 5-Chloro-4-[(2,3,6-trifluorophenyl)[(3,3,3-trifluoropropyl)sulfonyl]methyl]pyridine-2-carboxamide], the melting point was in the range of 237 to 239 °C. Moreover, the EC50 in data set [1] lay in the range of 50 to 500 nM. On to `Nc1cc(C(c2c(F)ccc(F)c2F)S(=O)(=O)CCC(F)(F)F)c(Cl)cn1` (stereo not drawn) [Example 48, 5-Chloro-4-[(2,3,6-trifluorophenyl)[(3,3,3-trifluoropropyl)sulfonyl]methyl]pyridin-2-amine], for which the melting point lay in the range of 155 to 159 °C. The EC50 in data set [1] is 5 to 50 nM. Take `O=c1cc(O)nc2cc(C(c3c(F)ccc(F)c3F)S(=O)(=O)CCC(F)(F)F)c(Cl)cn12` (stereo not drawn) [Example 49, 7-Chloro-2-hydroxy-8-[(2,3,6-trifluorophenyl)[(3,3,3-trifluoropropyl)sulfonyl]methyl]-4H-pyrido[1,2-a]pyrimidin-4-one]: the melting point is 264 °C (dec.). Also, in data set [1], the EC50 lay in the range of 5 to 50 nM. Turning to `Nc1cc(=O)n2cc(Cl)c(C(c3c(F)ccc(F)c3F)S(=O)(=O)CCC(F)(F)F)cc2n1` (stereo not drawn) [Example 51, 2-Amino-7-chloro-8-[(2,3,6-trifluorophenyl)[(3,3,3-trifluoropropyl)sulfonyl]methyl]-4H-pyrido[1,2-a]pyrimidin-4-one], the melting point was 247 °C (dec.). Further, in data set [1], the EC50 is no more than 5 nM. Taken in the same sequence, the figures for `O=c1[nH]nc2cc(C(c3c(F)ccc(F)c3F)S(=O)(=O)CCC(F)(F)F)c(Cl)cn12` (stereo not drawn) [Example 54, 6-Chloro-7-[(2,3,6-trifluorophenyl)[(3,3,3-trifluoropropyl)sulfonyl]methyl][1,2,4]triazolo[4,3-a]pyridin-3(2H)-one] were 209 to 211 °C and 5 to 50 nM.

The record behind these values is patent US20100168136A1, “ALKYLSULFONE DERIVATIVES” (DAIICHI SANKYO COMPANY, LIMITED, priority 2007, published 2010).
